Source: patent publication US20020099073A1, “Modulators of protein tyrosine phosphatases (PTPases)” (priority 2000, published 2002)

Biological target: T1, truncated form of PTP1B (corresponding to the first 321 amino acids) (Homo sapiens, UniProt P18031)
T1 construct: truncated form of PTP1B (corresponding to the first 321 amino acids); made in house; host or cells: E. coli
T1 sequence (P18031 1-321): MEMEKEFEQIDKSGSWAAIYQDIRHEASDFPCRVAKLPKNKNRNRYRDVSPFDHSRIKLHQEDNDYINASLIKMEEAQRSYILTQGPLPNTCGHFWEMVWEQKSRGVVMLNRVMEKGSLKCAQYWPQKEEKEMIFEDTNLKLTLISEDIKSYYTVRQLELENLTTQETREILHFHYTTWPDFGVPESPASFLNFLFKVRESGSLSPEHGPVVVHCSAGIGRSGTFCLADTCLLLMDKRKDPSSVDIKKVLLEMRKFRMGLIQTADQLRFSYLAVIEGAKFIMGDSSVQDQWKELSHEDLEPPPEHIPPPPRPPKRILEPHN
Experiment: Inhibition of PTP1B, p-nitrophenyl phosphate substrate
Assay type: biochemical
Conditions: substrate p-nitrophenyl phosphate 0.16 to 10 mM; 100 mM sodium acetate pH 5.5; 25° C. for 60 minutes; absorbance at 405 nm
Procedure: The compounds are evaluated for biological activity with a truncated form of PTP1B (corresponding to the first 321 amino acids), which was expressed in E. coli and purified to apparent homogeneity using published procedures well-known to those skilled in the art. The enzyme reactions are carried out using standard conditions essentially as described by Burke et al. (Biochemistry 35; 15989-15996 (1996)). The assay conditions are as follows. Appropriate concentrations of the compounds of the invention are added to the reaction mixtures containing different concentrations of the substrate, p-nitrophenyl phosphate (range: 0.16 to 10 mM—final assay concentration). The buffer used was 100 mM sodium acetate pH 5.5, 50 mM sodium chloride, 0.1% (w/v) bovine serum albumin and 5 mM dithiothreitol (total volume […]). The reaction was started by addition of the enzyme and carried out in microtiter plates at 25° C. for 60 minutes. The reactions are stopped by addition of NaOH. The enzyme activity was determined by measurement of the absorbance at 405 nm with appropriate corrections for absorbance at 405 nm of the compounds and p-nitrophenyl phosphate. The data are analyzed using nonlinear regression fit to classical Michaelis Menten enzyme kinetic models. Inhibition is expressed as Ki values in μM.

| Molecule | Ki [nM] |
| --- | --- |
| 5-(Benzyloxycarbonylamino-methyl)-2-(oxalyl-amino)-4,5,6,7-tetrahydro-thieno[2,3-c]pyridine-3-carboxylic acid and 7-(benzyloxycarbonylamino-methyl)-2-(oxalyl-amino)-4,5,6,7-tetrahydro-thieno[2,3-c]pyridine-3-carboxylic Acid [Example 17] | 1500 |
| O=C(O)C(=O)Nc1sc2c(c1C(=O)O)CC(CNC(=O)c1ccccc1)NC2 (centres unmarked) [Example 1, 5-(Benzoylamino-methyl)-2-(oxalyl-amino)-4,5,6,7-tetrahydro-thieno[2,3-c]Pyridine-3-carboxylic Acid] | 520 |
| COc1ccc(CN2Cc3sc(NC(=O)C(=O)O)c(C(=O)O)c3CC2CNC(=O)c2cc(-c3ccc(C)cc3)nc3ccc(Br)cc23)cc1 (centres unmarked) [Example 2, 5-(((6-Bromo-2-p-tolyl-quinoline-4-carbonyl)amino)methyl)-6-(4-methoxy-benzyl)-2-(oxalyl-amino)-4,5,6,7-tetrahydro-thieno[2,3-c]pyridine-3-carboxylic Acid] | 100000 |
| COc1ccc(CN2Cc3sc(NC(=O)C(=O)O)c(C(=O)O)c3CC2CNC(=O)c2cc3cc(OCc4ccccc4)ccc3[nH]2)cc1 (centres unmarked) [Example 3, 5-(((5-Benzyloxy-1H-indole-2-carbonyl)amino)methyl)-6-(4-methoxy-benzyl)-2-(oxalyl-amino)-4,5,6,7-tetrahydro-thieno[2,3-c]pyridine-3-carboxylic Acid] | 4300 |
| COc1ccc(CN2Cc3sc(NC(=O)C(=O)O)c(C(=O)O)c3CC2CNC(=O)c2ccc(NC(=O)c3ccccc3)cc2)cc1 (centres unmarked) [Example 4] | 3000 |
| O=C(O)C(=O)Nc1sc2c(c1C(=O)O)CC(CNC(=O)c1ccc(NC(=O)c3ccccc3)cc1)NC2 (centres unmarked) [Example 5, 5-((4-Benzoylamino-benzoylamino)methyl)-2-(oxalyl-amino)-4,5,6,7-tetrahydro-thieno[2,3-c]pyridine-3-carboxylic Acid] | 250 |
| COc1ccc(CN2Cc3sc(NC(=O)C(=O)O)c(C(=O)O)c3CC2CNC(=O)c2nn(-c3ccccc3)nc2C)cc1 (centres unmarked) [Example 6, 6-(4-Methoxy-benzyl)-5-(((5-methyl-2-phenyl-2H-[1,2,3]triazole-4-carbonyl)-amino)methyl)-2-(oxalyl-amino)-4,5,6,7-tetrahydro-thieno[2,3-c]pyridine-3-carboxylic Acid] | 20000 |
| O=C(O)C(=O)Nc1sc2c(c1C(=O)O)CC(CNC(=O)c1ccc(-c3ccccc3)cc1)NC2 (centres unmarked) [Example 9, 5-(((Biphenyl-4-carbonyl)amino)methyl)-2-(oxalyl-amino)-4,5,6,7-tetrahydro-thieno[2,3-c]pyridine-3-carboxylic Acid] | 220 |
| CCOc1ccc(C(=O)NCC2Cc3c(sc(NC(=O)C(=O)O)c3C(=O)O)CN2)c(O)c1 (centres unmarked) [Example 10, 5-((4-Ethoxy-2-hydroxy-benzoylamino)methyl)-2-(oxalyl-amino)-4,5,6,7-tetrahydro-thieno[2,3-c]pyridine-3-carboxylic Acid] | 340 |
| Cc1nn(-c2ccccc2)nc1C(=O)NCC1Cc2c(sc(NC(=O)C(=O)O)c2C(=O)O)CN1 (centres unmarked) [Example 11, 5-(((5-Methyl-2-phenyl-2H-[1,2,3]triazole-4-carbonyl)amino]methyl)-2-(oxalyl-amino)-4,5,6,7-tetrahydro-thieno[2,3-c]pyridin-3-carboxylic Acid] | 1500 |
| O=C(O)C(=O)Nc1sc2c(c1C(=O)O)CC(CNC(=O)c1cc3ccccc3[nH]1)NC2 (centres unmarked) [Example 14] | 670 |
| COc1ccc(CN2Cc3sc(NC(=O)C(=O)O)c(C(=O)O)c3CC2CNC(=O)c2cccc3ccccc23)cc1 (centres unmarked) [Example 16, 6-(4-Methoxybenzyl)-5-(((naphthalene-1-carbonyl)amino)methyl)-2-(oxalyl-amino)-4,5,6,7-tetrahydro-thieno[2,3-c]pyridine-3-carboxylic Acid] | 20000 |
| O=C(O)C(=O)Nc1sc2c(c1C(=O)O)CC(CNC(=O)c1ccccc1O)NC2 (centres unmarked) [Example 18, 5-((2-Hydroxy-benzoylamino)-methyl)-2-(oxalyl-amino)-4,5,6,7-tetrahydro-thieno[2,3-c]pyridine-3-carboxylic Acid] | 680 |
| O=C(O)C(=O)Nc1sc2c(c1C(=O)O)CC(CNC(=O)c1cccc(O)c1)NC2 (centres unmarked) [Example 19, 5-((3-Hydroxy-benzoylamino)methyl)-2-(oxalyl-amino)-4,5,6,7-tetrahydro-thieno[2,3-c]Pyridine-3-carboxylic Acid] | 950 |
| O=C(O)C(=O)Nc1sc2c(c1C(=O)O)C[C@@H](CNC(=O)c1cccc(Oc3ccccc3)c1)NC2 [Example 20, 2-(Oxalyl-amino)-5-(S)-((3-phenoxy-benzoylamino)methyl)-4,5,6,7-tetrahydro-thieno[2,3-c]pyridine-3-carboxylic Acid] | 270 |
| O=C(O)C(=O)Nc1sc2c(c1C(=O)O)C[C@@H](CNC(=O)c1ccc(NC(=O)c3ccccc3)cc1)NC2 [Example 21, 5-((4-Benzoylamino-benzoylamino)methyl)-2-(oxalyl-amino)-4,5,6,7-tetrahydro-thieno[2,3-c]pyridine-3-carboxylic Acid] | 160 |
| O=C(O)C(=O)Nc1sc2c(c1C(=O)O)C[C@H](CNC(=O)c1ccc(NC(=O)c3ccccc3)cc1)NC2 [Example 22, 5-(R)-((4-Benzoylamino-benzoylamino)methyl)-2-(oxalyl-amino)-4,5,6,7-tetrahydro-thieno[2,3-c]pyridine-3-carboxylic Acid] | 3200 |
| O=C(O)C(=O)Nc1sc2c(c1C(=O)O)C[C@@H](CNC(=O)c1ccc3ccccc3c1O)NC2 [Example 23, 5-(S)-(((1-Hydroxy-naphthalene-2-carbonyl)amino)methyl)-2-(oxalyl-amino)-4,5,6,7-tetrahydro-thieno[2,3-c]pyridine-3-carboxylic Acid] | 150 |
| O=C(O)C(=O)Nc1sc2c(c1C(=O)O)C[C@@H](CNC(=O)c1cc3ccccc3cc1O)NC2 [Example 24, 5-(S)-(((3-Hydroxy-naphthalene-2-carbonyl)amino)methyl)-2-(oxalyl-amino) 4,5,6,7-tetrahydro-thieno[2,3-c]pyridine-3-carboxylic Acid] | 220 |
| COc1ccc2cc(O)c(C(=O)NC[C@@H]3Cc4c(sc(NC(=O)C(=O)O)c4C(=O)O)CN3)cc2c1 [Example 25, 5-(S)-(((3-Hydroxy-7-methoxy-naphthalene-2-carbonyl)amino)methyl)-2-(oxalyl-amino)-4,5,6,7-tetrahydro-thieno[2,3-c]pyridine-3-carboxylic Acid] | 210 |
| O=C(NC[C@@H]1Cc2c(sc(NC(=O)C(=O)O)c2C(=O)O)CN1)Nc1ccc(Oc2ccccc2)cc1 [Example 27, 2-(Oxalyl-amino)-5-(S)-(3-(4-phenoxy-phenyl)ureidomethyl)-4,5,6,7-tetrahydro-thieno[2,3-c]pyridin-3-carboxylic Acid] | 200 |
| CC(=O)Nc1ccc(S(=O)(=O)NC[C@H]2Cc3c(sc(NC(=O)C(=O)O)c3C(=O)O)CN2)cc1 [Example 28, 5-(R)-((4-Acetylamino-benzenesulfonylamino)methyl)-2-(oxalyl-amino)-4,5,6,7-tetrahydro-thieno[2,3-c]pyridine-3-carboxylic Acid] | 3500 |
| CC(=O)Nc1ccc(S(=O)(=O)NC[C@@H]2Cc3c(sc(NC(=O)C(=O)O)c3C(=O)O)CN2)cc1 [Example 29, 5-(S)-((4-Acetylamino-benzenesulfonylamino)methyl)-2-(oxalyl-amino)-4,5,6,7-tetrahydro-thieno[2,3-c]pyridine-3-carboxylic Acid] | 130 |
